The record followed here is ChEMBL document CHEMBL1201862, “PubChem BioAssay data set” (2004).

Experiment [1] has as its target Luciferin 4-monooxygenase (Photinus pyralis, UniProt P08659). Description: inhibition of purified Photinus pyralis luciferase – biochemical, luminescence, dose response (AID 1891).
Experiment [2] is described as follows: blockers of HIV-1 envelope-mediated cell-cell fusion – cherry-pick, dose response (AID 652057). It counts as functional, cell-based.
A short description of experiment [3]: HIV-1 AD8 envelope cell-cell fusion blockers – cherry-pick, dose response (AID 652062).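 Further: luciferase signal from cell-cell fusion driven by HIV-1 clade B AD8 Env; potency is for inhibitors of fusion seen as a drop in luminescence.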 It counts as functional, cell-based.
Experiment [4] is described as follows: off-target signal loss in HeLa-CEM21 co-culture – HeLa F-luc CTL cells, cherry-picked, counter-screen for HIV-1 Env fusion inhibitor project, dose response (AID 652040).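 Further: potency for signal decrease marking cytotoxic or nonspecific inhibition.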 The class given is functional, cell-based.
A short description of experiment [5]: Luminescence Cell-Based Dose Confirmation HTS to Identify Inhibitors of Platelet Dense Granule Release. [Related pubchem assays: 1663 (Primary HTS), 1678 (Summary of Project)]. It counts as functional.
A short description of experiment [6]: blockers of HIV-1 ZM109 envelope-driven cell-cell fusion – HeLa effector, CEM target cells, luciferase, cherry-pick, dose response (AID 652058).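 Further: luciferase signal from HIV-1 Env mediated cell-cell fusion of effector and target cells.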 It counts as functional, cell-based.
The target of experiment [7] is T1, Fatty acid synthase (Homo sapiens, UniProt P49327). Description: inhibition of human FAS-TE enzyme activity – biochemical, endpoint fluorescence intensity, uHTS hits, dose response (AID 624327).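 Further: fluorescence from hydrolysis of an O-methyl fluorescein acyl ester substrate by the enzyme.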 The class given is functional.
For experiment [8], the target named is T1, Fatty acid synthase. Description: inhibition of human FAS-TE enzyme activity – biochemical, kinetic fluorescence intensity, dose response (AID 624326).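 Further: rate of fluorescence rise from hydrolysis of a fluorogenic O-methyl fluorescein ester substrate.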 The class given is functional.
Experiment [9] addresses T2, Short transient receptor potential channel 4 (Mus musculus, UniProt Q9QUQ5).
T2 sequence (Q9QUQ5 whole entry): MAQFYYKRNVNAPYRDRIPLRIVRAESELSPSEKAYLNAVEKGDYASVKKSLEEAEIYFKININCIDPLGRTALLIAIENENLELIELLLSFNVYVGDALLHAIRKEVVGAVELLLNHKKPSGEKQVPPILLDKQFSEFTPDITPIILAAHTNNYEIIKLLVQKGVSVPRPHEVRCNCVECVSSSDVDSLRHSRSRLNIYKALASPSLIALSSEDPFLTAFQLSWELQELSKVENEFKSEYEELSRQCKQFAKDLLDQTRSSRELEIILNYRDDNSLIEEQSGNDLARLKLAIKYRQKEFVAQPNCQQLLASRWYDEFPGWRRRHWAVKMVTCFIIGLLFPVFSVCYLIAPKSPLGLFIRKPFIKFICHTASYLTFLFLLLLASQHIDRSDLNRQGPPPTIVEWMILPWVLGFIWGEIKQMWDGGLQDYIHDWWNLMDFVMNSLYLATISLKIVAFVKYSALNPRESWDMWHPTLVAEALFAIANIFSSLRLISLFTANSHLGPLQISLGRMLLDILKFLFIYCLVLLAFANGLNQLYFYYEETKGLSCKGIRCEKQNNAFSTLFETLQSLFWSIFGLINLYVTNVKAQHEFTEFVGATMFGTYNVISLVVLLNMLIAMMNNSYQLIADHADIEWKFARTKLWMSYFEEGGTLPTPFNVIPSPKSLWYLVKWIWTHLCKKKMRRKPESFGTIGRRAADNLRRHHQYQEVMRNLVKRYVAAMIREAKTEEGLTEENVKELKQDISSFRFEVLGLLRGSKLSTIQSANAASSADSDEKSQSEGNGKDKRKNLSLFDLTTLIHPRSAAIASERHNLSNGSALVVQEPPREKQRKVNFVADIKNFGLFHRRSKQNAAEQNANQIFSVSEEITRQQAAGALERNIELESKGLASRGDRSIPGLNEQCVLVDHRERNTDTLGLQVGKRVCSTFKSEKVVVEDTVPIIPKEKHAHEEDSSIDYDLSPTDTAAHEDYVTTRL
Kind of experiment: block of DAMGO-driven TRPC4 calcium entry – cell-based, HEK293 TRPC4/mu-opioid, Fluo-4 calcium, dose response (AID 434942).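 Further: potency of inhibitors blocking the TRPC4 calcium response.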 It counts as functional.

Experiment [10] deals with T3, RNA-binding protein pos-1 (Caenorhabditis elegans, UniProt G5EF15).
T3 sequence (G5EF15 whole entry): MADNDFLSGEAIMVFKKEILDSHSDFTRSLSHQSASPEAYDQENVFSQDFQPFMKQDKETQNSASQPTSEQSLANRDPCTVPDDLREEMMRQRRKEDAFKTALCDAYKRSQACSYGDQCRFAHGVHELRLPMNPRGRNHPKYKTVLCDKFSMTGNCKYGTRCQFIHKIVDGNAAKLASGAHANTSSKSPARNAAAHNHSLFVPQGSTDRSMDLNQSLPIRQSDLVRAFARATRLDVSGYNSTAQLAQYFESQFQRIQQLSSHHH
Description: disruptors of C. elegans POS-1 RNA interaction – biochemical, fluorescence polarization, dose response (AID 1964).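 Further: purified POS-1 fused to maltose binding protein made in E. coli; potency of compounds blocking POS-1 binding to fluorescent RNA.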

Experiment [11] can be described thus: microbe, parasite or virus in culture. The class given is functional. The conditions noted are these: Mycobacterium tuberculosis.
Experiment [12] addresses T4, Zinc finger protein mex-5 (Caenorhabditis elegans, UniProt Q9XUB2).
T4 sequence (Q9XUB2 whole entry): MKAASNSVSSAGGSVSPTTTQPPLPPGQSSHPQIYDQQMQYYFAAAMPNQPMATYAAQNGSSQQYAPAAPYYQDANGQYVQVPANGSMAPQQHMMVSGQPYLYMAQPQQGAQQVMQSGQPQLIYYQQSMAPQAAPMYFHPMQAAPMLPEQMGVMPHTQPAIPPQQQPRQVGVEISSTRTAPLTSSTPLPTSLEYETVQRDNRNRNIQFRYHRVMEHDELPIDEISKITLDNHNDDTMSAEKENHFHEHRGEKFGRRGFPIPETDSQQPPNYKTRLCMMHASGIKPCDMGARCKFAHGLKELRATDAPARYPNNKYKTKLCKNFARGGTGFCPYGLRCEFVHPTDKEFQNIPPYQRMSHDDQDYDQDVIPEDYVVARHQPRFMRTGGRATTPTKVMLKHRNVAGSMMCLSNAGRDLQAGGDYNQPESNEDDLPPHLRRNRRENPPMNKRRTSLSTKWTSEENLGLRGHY
Kind of experiment: potency of MEX-5 RNA-binding blockers – biochemical, C. elegans, fluorescence polarization, dose response (AID 1960). On the technique in general: Fluorescence polarisation rises when a labelled molecule tumbles more slowly, as on binding a larger partner.

Experiment [13] is described as follows: viability of HCT116 lacking mutant beta-catenin – cell-based, human colon tumor, dose response (AID 1045).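 Further: HCT116 colon tumor cells with beta catenin knocked out; cells exposed to compound for 60 hours.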 It counts as functional.
A short description of experiment [14]: NIH3T3 cell viability loss – ATP luminescence, mouse fibroblasts, counter-screen, dose response (AID 2010).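 Further: cells exposed to compound for about 90 hours before reading.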 The class given is functional, cell-based.
A short description of experiment [15]: blockade of melanocortin 4 receptor signaling – cell-based, plate reader, cherry pick, counter-screen for LGR2 antagonist project, dose response (AID 743444).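 Further: transfected HEK 293 cells stimulated with alpha-MSH peptide; potency of inhibitors of the alpha-MSH evoked signal.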 It counts as functional.
Experiment [16] is described as follows: viability of PTEN-deleted HCT116 cells – cell-based, HCT116 PTEN knockout, dose response (AID 1047).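 Further: HCT116 colon tumor cells with PTEN knocked out; cells exposed to compound for 60 hours before readout; potency for loss of cell viability measured by luminescence.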 It counts as functional.
Experiment [17] can be described thus: Trypanosoma cruzi growth suppression in host cells – NIH3T3 host cells, beta-gal luminescence, confirmation (AID 2044).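 Further: intracellular parasites grown in NIH/3T3 mouse fibroblasts as host cells; luminescent beta-galactosidase reporter signal from transgenic T. cruzi replicating inside host cells; inhibitors lower the luminescence signal.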 It counts as functional, cell-based.
The nature of experiment [18]: A549 cell cytotoxicity, dose response, cytotoxicity control, plate reader, cherry-pick, antagonist series (AID 743412). It counts as functional, cell-based.
The target of experiment [19] is Induced myeloid leukemia cell differentiation protein Mcl-1 (Homo sapiens, UniProt Q07820). The class given is functional.
The nature of experiment [20]: Luminescence Cell-Based Dose Response HTS to Identify Inhibitors of 5'UTR Stem-Loop Driven Prion Protein mRNA Translation in H4 Neuroglioblastoma Cells. [Related pubchem assays: 1827 (Project Summary), 1813 (Primary HTS)]. The class given is functional.
The nature of experiment [21]: luciferase reporter signal suppression in cells – H4 neuroglioma cells, luminescence, dose response (AID 1990). It counts as functional, cell-based. A general note: Reporter assays use an easily measured gene product as a stand-in for the process of interest.
Experiment [22] is described as follows: alpha-synuclein stem-loop luciferase translation blockers – H4 neuroglioma cells, luminescence, confirmation (AID 1988). It counts as functional, cell-based.

The source made the active and inactive calls. Some results are limits rather than exact numbers.

T1 sequence (P49327 whole entry): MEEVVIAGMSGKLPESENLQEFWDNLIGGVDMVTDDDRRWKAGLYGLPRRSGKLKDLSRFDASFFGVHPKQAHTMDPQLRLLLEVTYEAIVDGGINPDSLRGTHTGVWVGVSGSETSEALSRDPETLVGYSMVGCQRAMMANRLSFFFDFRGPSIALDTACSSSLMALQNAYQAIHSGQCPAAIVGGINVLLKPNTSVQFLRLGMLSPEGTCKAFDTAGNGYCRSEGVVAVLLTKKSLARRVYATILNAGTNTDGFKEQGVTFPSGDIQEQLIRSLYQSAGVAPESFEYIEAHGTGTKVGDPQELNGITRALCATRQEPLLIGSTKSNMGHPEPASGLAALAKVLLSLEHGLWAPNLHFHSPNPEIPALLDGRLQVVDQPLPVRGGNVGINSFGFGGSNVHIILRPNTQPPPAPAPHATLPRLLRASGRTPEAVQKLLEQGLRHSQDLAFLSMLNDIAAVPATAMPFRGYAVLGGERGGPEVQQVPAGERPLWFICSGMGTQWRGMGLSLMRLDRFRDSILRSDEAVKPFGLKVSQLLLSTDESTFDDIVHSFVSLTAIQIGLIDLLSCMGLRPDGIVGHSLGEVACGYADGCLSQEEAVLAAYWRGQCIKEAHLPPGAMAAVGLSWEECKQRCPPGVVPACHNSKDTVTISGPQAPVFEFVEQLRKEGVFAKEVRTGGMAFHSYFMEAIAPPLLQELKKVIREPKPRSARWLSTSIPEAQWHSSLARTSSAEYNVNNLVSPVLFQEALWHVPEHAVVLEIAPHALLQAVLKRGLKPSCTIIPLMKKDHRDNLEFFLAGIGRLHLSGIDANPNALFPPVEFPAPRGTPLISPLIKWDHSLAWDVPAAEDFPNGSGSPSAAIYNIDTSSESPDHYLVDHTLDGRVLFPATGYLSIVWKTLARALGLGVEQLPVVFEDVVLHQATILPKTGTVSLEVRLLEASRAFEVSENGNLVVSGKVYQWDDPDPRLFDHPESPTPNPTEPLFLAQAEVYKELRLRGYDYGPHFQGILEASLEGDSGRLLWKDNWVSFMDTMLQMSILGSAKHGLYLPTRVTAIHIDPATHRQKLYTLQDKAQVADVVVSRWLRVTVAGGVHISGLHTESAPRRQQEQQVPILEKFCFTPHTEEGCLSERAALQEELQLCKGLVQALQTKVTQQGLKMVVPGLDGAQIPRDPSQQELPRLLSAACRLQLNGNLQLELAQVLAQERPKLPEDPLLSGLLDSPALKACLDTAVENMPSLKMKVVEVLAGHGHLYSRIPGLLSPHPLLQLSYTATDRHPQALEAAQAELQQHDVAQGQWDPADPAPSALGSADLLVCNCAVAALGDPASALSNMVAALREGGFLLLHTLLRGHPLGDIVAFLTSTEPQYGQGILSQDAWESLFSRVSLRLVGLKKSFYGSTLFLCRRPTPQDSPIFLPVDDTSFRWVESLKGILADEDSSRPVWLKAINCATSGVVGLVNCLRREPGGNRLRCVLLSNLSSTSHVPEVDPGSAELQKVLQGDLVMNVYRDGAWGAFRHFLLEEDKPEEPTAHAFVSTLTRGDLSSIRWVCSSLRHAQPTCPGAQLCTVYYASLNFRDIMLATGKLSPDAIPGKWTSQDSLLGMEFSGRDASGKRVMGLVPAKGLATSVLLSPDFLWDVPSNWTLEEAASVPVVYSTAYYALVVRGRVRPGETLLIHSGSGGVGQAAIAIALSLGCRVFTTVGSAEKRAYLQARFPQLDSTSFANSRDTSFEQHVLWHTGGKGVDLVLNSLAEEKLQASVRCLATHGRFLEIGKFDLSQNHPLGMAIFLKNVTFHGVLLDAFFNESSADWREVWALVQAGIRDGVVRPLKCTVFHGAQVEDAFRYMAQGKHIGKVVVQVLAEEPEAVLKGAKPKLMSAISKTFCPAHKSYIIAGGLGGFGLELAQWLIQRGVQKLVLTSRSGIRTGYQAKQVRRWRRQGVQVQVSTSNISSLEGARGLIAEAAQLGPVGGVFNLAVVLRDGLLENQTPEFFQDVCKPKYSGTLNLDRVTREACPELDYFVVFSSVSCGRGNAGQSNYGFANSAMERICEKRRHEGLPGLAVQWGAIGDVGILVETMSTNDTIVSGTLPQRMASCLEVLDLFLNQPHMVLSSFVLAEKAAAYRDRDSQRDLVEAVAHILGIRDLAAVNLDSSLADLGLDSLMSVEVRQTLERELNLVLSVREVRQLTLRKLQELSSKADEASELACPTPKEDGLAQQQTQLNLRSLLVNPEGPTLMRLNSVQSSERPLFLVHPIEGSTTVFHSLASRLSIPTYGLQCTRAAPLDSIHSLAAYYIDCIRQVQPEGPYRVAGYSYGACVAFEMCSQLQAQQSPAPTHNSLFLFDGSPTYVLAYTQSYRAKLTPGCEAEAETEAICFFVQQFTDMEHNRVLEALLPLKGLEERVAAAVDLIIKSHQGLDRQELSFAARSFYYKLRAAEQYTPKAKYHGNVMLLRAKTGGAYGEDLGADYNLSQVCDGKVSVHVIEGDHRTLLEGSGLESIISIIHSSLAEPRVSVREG
Chain of Luciferin 4-monooxygenase (P08659 whole entry, the tested form may be a part): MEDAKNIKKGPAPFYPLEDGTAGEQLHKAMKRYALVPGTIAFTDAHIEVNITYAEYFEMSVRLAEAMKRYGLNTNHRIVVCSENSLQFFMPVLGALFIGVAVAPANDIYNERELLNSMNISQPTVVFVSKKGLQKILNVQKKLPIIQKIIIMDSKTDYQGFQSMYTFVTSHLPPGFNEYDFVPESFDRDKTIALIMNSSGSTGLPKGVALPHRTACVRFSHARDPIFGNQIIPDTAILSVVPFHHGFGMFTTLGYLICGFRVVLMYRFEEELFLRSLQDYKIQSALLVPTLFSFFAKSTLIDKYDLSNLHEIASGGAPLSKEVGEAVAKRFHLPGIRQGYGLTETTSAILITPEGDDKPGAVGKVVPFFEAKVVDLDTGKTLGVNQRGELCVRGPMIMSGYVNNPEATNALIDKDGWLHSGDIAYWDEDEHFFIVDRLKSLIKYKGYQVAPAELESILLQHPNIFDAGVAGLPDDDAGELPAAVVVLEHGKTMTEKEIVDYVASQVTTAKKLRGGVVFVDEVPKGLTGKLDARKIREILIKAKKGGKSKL
Chain of Induced myeloid leukemia cell differentiation protein Mcl-1 (Q07820 whole entry): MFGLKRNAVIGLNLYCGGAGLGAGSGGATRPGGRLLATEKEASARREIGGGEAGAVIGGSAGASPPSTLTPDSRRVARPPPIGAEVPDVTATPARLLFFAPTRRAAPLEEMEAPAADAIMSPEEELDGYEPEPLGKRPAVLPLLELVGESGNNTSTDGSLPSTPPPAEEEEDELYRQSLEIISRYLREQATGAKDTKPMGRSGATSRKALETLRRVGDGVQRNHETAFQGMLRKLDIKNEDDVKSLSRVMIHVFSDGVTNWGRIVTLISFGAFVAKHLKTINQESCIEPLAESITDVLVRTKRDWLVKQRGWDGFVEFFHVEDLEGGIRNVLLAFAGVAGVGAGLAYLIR

By EC50 is commonly meant the concentration needed to bring the measured effect to its halfway point. The AC50 is the midpoint of the concentration-response curve, whichever way the signal moves. Regarding `COc1ccc(Cl)cc1NC(=O)Nc1cnccn1`, the EC50 in experiment [1] and in [5] was > 112 µM (not active) each time. Moreover, the AC50 is 3.57 µM (active) in experiment [2], 14.2 µM (active) in [3], 2.19 µM (active) in [4] and 37.9 µM (active) in experiment [6].

One may read the IC50 as the concentration that inhibits the measured activity by half. With `O=C(O)CC(NC(=O)CCC1CCCCC1)c1cc([N+](=O)[O-])ccc1Cl` (configuration not stated), the IC50 is 10.7 µM (active) in [7] and 8.7 µM (active) in experiment [8].

Regarding `CC(C1CC2CCC1C2)n1c(S)nnc1-c1cccs1` (configuration not stated), in experiment [9], the EC50 was 2.66 µM (active).

For `CCCCc1ccc(NC(=O)CSC2=NN3CCCC(=O)N=C3S2)cc1`, the EC50 in experiment [10] and in experiment [12] was > 300 µM (not active) in each case. Moreover, the CC50 in [11] was > 40 µM (active).

With `N#CCCSc1nc(N2CCOCC2)c2c(c1C#N)CCCC2`, the IC50 in experiment [7] was 7.57 µM (active); in experiment [8], 5.49 µM (active).

Consider `CNC(=S)N(Cc1ccc(OC)cc1)C1CC(=O)N(c2ccc(Cl)cc2)C1=O` (configuration not stated), for which the IC50 in experiment [7] is 11 µM (active); in experiment [8], 9.36 µM (active).

For `CC(C)CCNC(=O)C(c1ccc(O)cc1)N(Cc1cccs1)C(=O)C1COc2ccccc2O1` (configuration not stated), the EC50 was 21.4 µM (active) in [13], > 60 µM (inconclusive) in experiment [14], 19.5 µM (active) in [16] and 1.58 µM (active) in experiment [17]. Also, the AC50 in experiment [15] was 35.3 µM (active); in experiment [18], > 52 µM (inactive).

For `Cc1ccc(-n2nc(-c3cccs3)cc2C(=O)NCC2CCCO2)c(C)c1` (configuration not stated), the EC50 in experiment [9] was 4.73 µM (active).

On to `CCN(CC)S(=O)(=O)c1ccc(N2CCCC2)c(NC(=O)Cc2cc(OC)c(OC)c(OC)c2)c1`, for which the AC50 was 3.42 µM (active) in [2], 7.04 µM (active) in experiment [3], 6.7 µM (active) in experiment [4] and 5.2 µM (active) in experiment [6].

For the molecule `CCOCCCNCc1cc(Br)ccc1OCc1ccccc1`, the EC50 in experiment [9] was 1.33 µM (active).

As for `COc1ccc2nc(Nc3sc4c(c3C(N)=O)CCCC4)sc2c1`, the IC50 in [19] is 8.79 µM (active).

For the molecule `Cc1ccc(Cn2nnnc2CN2CCC(c3nc4cc(Cl)ccc4[nH]3)CC2)cc1`, the values for the EC50 in [20], in experiment [21] and in experiment [22] were 10.5 µM (active), 7.23 µM (active) and 2.45 µM (active), respectively. Also, the AC50 in [2] is 19.5 µM (active); in experiment [6] it was 2.37 µM (active). Further, the CC50 in experiment [11] was 6.84 µM (active).

With `O=C(NCc1ccccc1)/C(=C\c1cccc([N+](=O)[O-])c1)NC(=O)c1ccco1`, the results for the IC50 in experiment [7] and in experiment [8] were 5.46 µM (active) and 4.06 µM (active), respectively.
